In patent US12577255B2, “MDM2-based modulators of proteolysis and associated methods of use” (Arvinas Operations, Inc., priority 2015, dated 2026):

Assays:
[1] = system: c-Jun N-terminal kinases (JNK); experiment: JNK Western blot assay (degradation); format: cell-based; settings: at 1 μM; 16 h
Protocol: (§1) The following biological assays were performed to evaluate the protein degradation in various cell types using representative compounds disclosed. The degradation of the following proteins were evaluated: bromodomain-containing protein 4 (BRD4), androgen receptor (AR), c-Myc, c-Jun N-terminal kinases (JNK), and enhancer of zeste homolog 2 (EZH2).
(§2) Cells were purchased from ATCC and cultured in Dulbecco's Modified Eagle's Medium (ATCC), supplemented with 10% FBS (ATCC) and Penicillin/Streptomycin (Life Technologies). […] Cells were harvested, and lysed in RIPA buffer (50 mM Tris pH8, 150 mM NaCl, 1% Tx-100, 0.1% SDS, 0.5% sodium deoxycholate) supplemented with protease and phosphatase inhibitors. Lysates were clarified at 16,000 g for 10 minutes, and protein concentration was determined. Equal amount of protein (20 μg) was subjected to SDS-PAGE analysis and followed by immunoblotting according to standard protocols.

[2] = system: p53; experiment: Western blot of HCT116 cells, p53 level; format: cell-based, human; settings: Western blot (FIG. 2, FIG. 3)
[3] = target: T1, bromodomain-containing protein 4 (BRD4) (Homo sapiens, UniProt O60885); experiment: BRD4 Western blot (degradation); format: cell-based; settings: at 1 μM; VCaP cells, 16 h
T1 construct: VCaP cells were chased from ATCC and cultured in Dulbecco's Modified Eagle's Medium; host or cells: VCaP
Protocol: as §1
VCaP cells were chased from ATCC and cultured in Dulbecco's Modified Eagle's Medium (ATCC), supplemented with 10% FBS (ATCC) and Penicillin/Streptomycin (Life Technologies). DMSO control and compound treatments (0.03 μM to 1 μM) were performed in 12-well plates for 16 h. cells were harvested, and lysed in RIPA buffer (50 mM Tris pH8, 150 mM NaCl, 1% Tx-100, 0.1% SDS, 0.5% sodium deoxycholate) supplemented with protease and phosphatase inhibitors. Lysates were clarified at 16,000 g for 10 minutes, and protein concentration was determined. Equal amount of protein (20 μg) was subjected to SDS-PAGE analysis and followed by immunoblotting according to standard protocols. The antibodies used were BRD4 (Cell signaling #13440), and Actin (Sigma #5441). Detection reagents were Clarity Western ELC substrate (Bio-rad #170-5060).

[4] = target: T2, MDM2 (Homo sapiens, UniProt Q00987); experiment: Western blot of HCT116 cells, MDM2 level; format: cell-based; settings: Western blot (FIG. 2, FIG. 3)
T2 construct: Western blot of HCT116 cells treated with chimeric molecules; endogenous in cells; host or cells: HCT116

[5] = target: BRD4 (Homo sapiens, UniProt O60885); experiment: Time course of BRD4 degradation in A549; format: cell-based; design: endogenous in cells; host or cells: A549; settings: human lung cancer cell line A549 (FIG. 6)
[6] = system: p53^WT HCT-116 colon cancer cell lines; experiment: Cell growth assay; format: cell-based, human; settings: p53^WT HCT-116 (FIG. 4)
[7] = target: enhancer of zeste homolog 2 (EZH2) (Homo sapiens, UniProt Q15910); experiment: EZH2 Western blot assay (degradation); format: cell-based; settings: at 1 μM; 16 h
Protocol: as §1, §2

T2 sequence (Q00987 whole entry): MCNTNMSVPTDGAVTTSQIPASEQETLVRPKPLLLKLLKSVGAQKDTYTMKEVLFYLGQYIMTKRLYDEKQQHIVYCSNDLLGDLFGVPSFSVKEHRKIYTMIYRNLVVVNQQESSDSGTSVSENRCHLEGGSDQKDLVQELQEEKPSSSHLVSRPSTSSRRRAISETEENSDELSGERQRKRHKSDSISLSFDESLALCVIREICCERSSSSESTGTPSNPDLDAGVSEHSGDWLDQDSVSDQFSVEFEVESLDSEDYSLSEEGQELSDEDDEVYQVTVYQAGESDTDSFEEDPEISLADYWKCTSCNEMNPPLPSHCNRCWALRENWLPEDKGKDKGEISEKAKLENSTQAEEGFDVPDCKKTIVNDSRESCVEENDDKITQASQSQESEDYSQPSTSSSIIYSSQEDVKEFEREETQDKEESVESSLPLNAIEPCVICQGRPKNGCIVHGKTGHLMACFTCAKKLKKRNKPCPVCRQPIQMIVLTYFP
enhancer of zeste homolog 2 (EZH2), sequence (Q15910 whole entry): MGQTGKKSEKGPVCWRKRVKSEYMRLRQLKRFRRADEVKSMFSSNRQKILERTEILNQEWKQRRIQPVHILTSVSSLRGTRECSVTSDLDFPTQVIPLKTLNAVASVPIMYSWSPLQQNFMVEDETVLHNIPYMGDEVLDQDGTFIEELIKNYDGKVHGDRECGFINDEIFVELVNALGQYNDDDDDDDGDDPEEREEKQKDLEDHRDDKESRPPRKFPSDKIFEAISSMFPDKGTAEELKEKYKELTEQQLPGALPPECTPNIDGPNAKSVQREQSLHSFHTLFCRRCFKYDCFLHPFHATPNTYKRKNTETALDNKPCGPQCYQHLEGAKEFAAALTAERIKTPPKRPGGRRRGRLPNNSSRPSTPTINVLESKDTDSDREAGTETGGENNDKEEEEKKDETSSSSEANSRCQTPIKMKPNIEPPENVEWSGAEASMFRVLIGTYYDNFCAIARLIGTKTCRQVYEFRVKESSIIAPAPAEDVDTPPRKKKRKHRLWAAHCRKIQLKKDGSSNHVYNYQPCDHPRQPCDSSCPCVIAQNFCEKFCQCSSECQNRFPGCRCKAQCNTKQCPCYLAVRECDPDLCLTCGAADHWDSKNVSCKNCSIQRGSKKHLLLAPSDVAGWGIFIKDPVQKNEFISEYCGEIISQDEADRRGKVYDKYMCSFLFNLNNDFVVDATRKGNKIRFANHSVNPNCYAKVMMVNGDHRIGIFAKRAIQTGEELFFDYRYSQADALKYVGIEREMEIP
enhancer of zeste homolog 2 (EZH2), sequence (O75530 whole entry partner): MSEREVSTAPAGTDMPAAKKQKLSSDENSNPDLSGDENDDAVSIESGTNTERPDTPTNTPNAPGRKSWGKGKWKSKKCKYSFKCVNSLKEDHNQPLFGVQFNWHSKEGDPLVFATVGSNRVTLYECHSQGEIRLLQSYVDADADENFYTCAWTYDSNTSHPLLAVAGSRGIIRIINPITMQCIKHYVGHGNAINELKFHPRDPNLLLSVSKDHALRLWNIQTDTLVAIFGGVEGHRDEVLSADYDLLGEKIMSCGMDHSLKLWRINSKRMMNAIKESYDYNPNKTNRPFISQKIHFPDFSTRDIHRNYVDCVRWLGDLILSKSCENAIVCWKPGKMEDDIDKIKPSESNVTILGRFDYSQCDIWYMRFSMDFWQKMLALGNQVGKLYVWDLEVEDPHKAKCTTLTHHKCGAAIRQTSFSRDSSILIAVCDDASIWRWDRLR
enhancer of zeste homolog 2 (EZH2), sequence (Q15022 whole entry partner): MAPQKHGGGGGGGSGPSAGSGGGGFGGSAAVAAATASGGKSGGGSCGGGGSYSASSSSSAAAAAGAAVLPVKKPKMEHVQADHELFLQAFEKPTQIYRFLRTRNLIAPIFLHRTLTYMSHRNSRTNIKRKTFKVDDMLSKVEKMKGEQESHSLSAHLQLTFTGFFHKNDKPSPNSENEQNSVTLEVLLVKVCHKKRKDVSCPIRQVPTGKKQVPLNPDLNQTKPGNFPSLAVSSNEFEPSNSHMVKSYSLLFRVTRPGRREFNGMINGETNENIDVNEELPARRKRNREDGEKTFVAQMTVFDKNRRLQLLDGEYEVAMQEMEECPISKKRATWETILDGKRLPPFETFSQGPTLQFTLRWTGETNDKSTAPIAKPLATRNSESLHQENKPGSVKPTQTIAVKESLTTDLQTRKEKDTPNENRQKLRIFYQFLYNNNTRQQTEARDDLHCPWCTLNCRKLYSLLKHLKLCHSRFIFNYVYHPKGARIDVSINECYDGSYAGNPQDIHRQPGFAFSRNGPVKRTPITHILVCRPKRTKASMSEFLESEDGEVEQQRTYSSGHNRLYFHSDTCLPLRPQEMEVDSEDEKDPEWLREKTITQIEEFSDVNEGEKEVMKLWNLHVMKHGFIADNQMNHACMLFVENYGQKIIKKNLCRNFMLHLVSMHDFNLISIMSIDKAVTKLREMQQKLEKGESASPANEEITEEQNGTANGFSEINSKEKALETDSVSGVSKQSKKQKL

SMILES | Degradation activity JNK [1] | p53 level increase [2] | Degradation activity BRD4 [3] | MDM2 up-regulation [4] | other results
COc1cc(C(=O)NCCOCCO[C@H]2CC[C@H](Nc3nccc(-c4cnn(Cc5ccccc5)c4N(C)C)n3)CC2)ccc1NC(=O)C1N[C@@H](CC(C)(C)C)[C@](C#N)(c2ccc(Cl)cc2F)[C@H]1c1cccc(Cl)c1F (stereo partly drawn) [Compound A2720, 3-(3-chloro-2-fluorophenyl)-4-(4-chloro-2-fluorophenyl)-4-cyano-5-(2,2-dimethylpropyl)-N-(2-methoxy-4-{[2-(2-{[(1,4-trans)-4-({4-[1-benzyl-5-(dimethylamino)-1H-pyrazol-4-yl]pyrimidin-2-yl}amino)cyclohexyl]oxy}ethoxy)ethyl]carbamoyl}phenyl)pyrrolidine-2-carboxamide] | A (0 to 25% degradation at 1 μM) |  |  |  | 
COc1cc(C(=O)NCCOCCOCCNC(=O)C[C@@H]2N=C(c3ccc(Cl)cc3)c3c(sc(C)c3C)-n3c(C)nnc32)ccc1NC(=O)[C@@H]1N[C@@H](CC(C)(C)C)[C@](C#N)(c2ccc(Cl)cc2F)[C@H]1c1cccc(Cl)c1F [Compound A1864, (2R,3S,4R,5S)-3-(3-chloro-2-fluorophenyl)-4-(4-chloro-2-fluorophenyl)-N-[4-({2-[2-(2-{2-[(9S)-7-(4-chlorophenyl)-4,5,13-trimethyl-3-thia-1,8,11,12-tetraazatricyclo-[8.3.0.0^2,^6]trideca-2(6),4,7,10,12-pentaen-9-yl]acetamido}ethoxy)ethoxy]ethyl}-carbamoyl)-2-methoxyphenyl]-4-cyano-5-(2,2-dimethylpropyl)pyrrolidine-2-carboxamide] |  | dose dependent p53 level increase | B (25 to 50% degradation at 1 μM) | up-regulation of MDM2 | 
COc1cc(C(=O)NCCOCCOCCOCCOCCNC(=O)C[C@@H]2N=C(c3ccc(Cl)cc3)c3c(sc(C)c3C)-n3c(C)nnc32)ccc1NC(=O)[C@@H]1N[C@@H](CC(C)(C)C)[C@](C#N)(c2ccc(Cl)cc2F)[C@H]1c1cccc(Cl)c1F [Compound A1893, (2R,3S,4R,5S)-3-(3-chloro-2-fluorophenyl)-4-(4-chloro-2-fluorophenyl)-N-{4-[(14-{2-[(9S)-7-(4-chlorophenyl)-4,5,13-trimethyl-3-thia-1,8,11,12-tetraazatricyclo[8.3.0.0^2,^6]-trideca-2(6),4,7,10,12-pentaen-9-yl]acetamido}-3,6,9,12-tetraoxatetradecan-1-yl)carbamoyl]-2-methoxyphenyl}-4-cyano-5-(2,2-dimethylpropyl)pyrrolidine-2-carboxamide] |  | dose dependent p53 level increase | C (larger than 50% degradation at 1 μM) | up-regulation of MDM2 | BRD4 degradation, time course [5]: BRD4 degradation; growth inhibition [6]: very potent growth inhibition
CCN(c1cc(-c2ccc(OCCOCCOCCOCCOCCOCCNC(=O)c3ccc(NC(=O)C4NC(CC(C)(C)C)C(C#N)(c5ccc(Cl)cc5F)C4c4cccc(Cl)c4F)c(OC)c3)cc2)cc(C(=O)NCc2c(C)cc(C)[nH]c2=O)c1C)C1CCOCC1 (centres unmarked) [Compound A2844, 3-(3-chloro-2-fluorophenyl)-4-(4-chloro-2-fluorophenyl)-4-cyano-N-[4-({1-[4-(3-{[(4,6-dimethyl-2-oxo-1,2-dihydropyridin-3-yl)methyl]carbamoyl}-5-[ethyl(oxan-4-yl)amino]-4-methylphenyl)phenyl]-1,4,7,10,13,16-hexaoxaoctadecan-18-yl}carbamoyl)-2-methoxyphenyl]-5-(2,2-dimethylpropyl)pyrrolidine-2-carboxamide] |  |  |  |  | Degradation activity EZH2 [7]: A (0 to 25% degradation at 1 μM)
COc1ccc(C(=O)NCCOCCOCCO[C@H]2CC[C@H](Nc3nccc(-c4cnn(Cc5ccccc5)c4N(C)C)n3)CC2)cc1NC(=O)C1N[C@@H](CC(C)(C)C)[C@](C#N)(c2ccc(Cl)cc2F)[C@H]1c1cccc(Cl)c1F (stereo partly drawn) [Compound A2766, 3-(3-chloro-2-fluorophenyl)-4-(4-chloro-2-fluorophenyl)-4-cyano-5-(2,2-dimethylpropyl)-N-[2-methoxy-5-({2-[2-(2-{[(1,4-trans)-4-({4-[1-benzyl-5-(dimethylamino)-1H-pyrazol-4-yl]pyrimidin-2-yl}amino)cyclohexyl]oxy}ethoxy)ethoxy]ethyl}carbamoyl)phenyl]pyrrolidine-2-carboxamide] | A (0 to 25% degradation at 1 μM) |  |  |  | 
CCN(c1cc(-c2ccc(OCCOCCOCCOCCNC(=O)c3ccc(NC(=O)C4NC(CC(C)(C)C)C(C#N)(c5ccc(Cl)cc5F)C4c4cccc(Cl)c4F)c(OC)c3)cc2)cc(C(=O)NCc2c(C)cc(C)[nH]c2=O)c1C)C1CCOCC1 (centres unmarked) [Compound A2790, 3-(3-chloro-2-fluorophenyl)-4-(4-chloro-2-fluorophenyl)-4-cyano-N-[4-({1-[4-(3-{[(4,6-dimethyl-2-oxo-1,2-dihydropyridin-3-yl)methyl]carbamoyl}-5-[ethyl(oxan-4-yl)amino]-4-methylphenyl)phenyl]-1,4,7,10-tetraoxadodecan-12-yl}carbamoyl)-2-methoxyphenyl]-5-(2,2-dimethylpropyl)pyrrolidine-2-carboxamide] |  |  |  |  | Degradation activity EZH2 [7]: A (0 to 25% degradation at 1 μM)
COc1cc(C(=O)NCCOCCOCCOCCO[C@H]2CC[C@H](Nc3nccc(-c4cnn(Cc5ccccc5)c4N(C)C)n3)CC2)ccc1NC(=O)C1N[C@@H](CC(C)(C)C)[C@](C#N)(c2ccc(Cl)cc2F)[C@H]1c1cccc(Cl)c1F (stereo partly drawn) [Compound A2791, 3-(3-chloro-2-fluorophenyl)-4-(4-chloro-2-fluorophenyl)-4-cyano-5-(2,2-dimethylpropyl)-N-[2-methoxy-4-({1-[(1,4-trans)-4-({4-[1-benzyl-5-(dimethylamino)-1H-pyrazol-4-yl]pyrimidin-2-yl}amino)cyclohexyl]-1,4,7,10-tetraoxadodecan-12-yl}carbamoyl)phenyl]pyrrolidine-2-carboxamide] | A (0 to 25% degradation at 1 μM) |  |  |  | 
COc1ccc(C(=O)NCCOCCOCCOCCOCCO[C@H]2CC[C@H](Nc3nccc(-c4cnn(Cc5ccccc5)c4N(C)C)n3)CC2)cc1NC(=O)C1N[C@@H](CC(C)(C)C)[C@](C#N)(c2ccc(Cl)cc2F)[C@H]1c1cccc(Cl)c1F (stereo partly drawn) [Compound A2792, 3-(3-chloro-2-fluorophenyl)-4-(4-chloro-2-fluorophenyl)-4-cyano-5-(2,2-dimethylpropyl)-N-[2-methoxy-5-({1-[(1,4-trans)-4-({4-[1-benzyl-5-(dimethylamino)-1H-pyrazol-4-yl]pyrimidin-2-yl}amino)cyclohexyl]-1,4,7,10,13-pentaoxapentadecan-15-yl}carbamoyl)phenyl]pyrrolidine-2-carboxamide] | A (0 to 25% degradation at 1 μM) |  |  |  | 
COc1cc(C(=O)NCCOCCNC(=O)C[C@@H]2N=C(c3ccc(Cl)cc3)c3c(sc(C)c3C)-n3c(C)nnc32)ccc1NC(=O)[C@@H]1N[C@@H](CC(C)(C)C)[C@](C#N)(c2ccc(Cl)cc2F)[C@H]1c1cccc(Cl)c1F [Compound A1892, (2R,3S,4R,5S)-3-(3-chloro-2-fluorophenyl)-4-(4-chloro-2-fluorophenyl)-N-(4-{[2-(2-{2-[(9S)-7-(4-chlorophenyl)-4,5,13-trimethyl-3-thia-1,8,11,12-tetraazatricyclo[8.3.0.0^2,^6]-trideca-2(6),4,7,10,12-pentaen-9-yl]acetamido}ethoxy)ethyl]carbamoyl}-2-methoxyphenyl)-4-cyano-5-(2,2-dimethylpropyl)pyrrolidine-2-carboxamide] |  | dose dependent p53 level increase | C (larger than 50% degradation at 1 μM) | up-regulation of MDM2 | 
